Reference: publication PMC5849655 (European Journal of Clinical Pharmacology, 2017)
Where two headings read alike, the source gives them in different places.

Legend:
[1] = Caco-2 permeability (siponimod, reference compound); assay type: in vitro ADME, human; conditions: human, Caco-2; SimCYP V9 input of the siponimod model; read-out: Reference compound permeability
Description: (§1) Siponimod absorption was predicted based on the permeability of Caco-2 cell (human colon carcinoma cell line) monolayers and considered to be complete (fraction absorbed [fa] = 1). Absorption rate constant (Ka) was calculated from the first clinical data to be 0.98/h. […] A volume of distribution of 2.12 L/kg was estimated based on preclinical data observation. The initial CL estimation of the siponimod model was based on human in vitro data from HLM and recombinant enzyme kinetics [unpublished data]. By using the in vivo clearance (CL/F) together with the fractional contribution of each CYP enzyme (phenotyping data) in the SimCYP retrograde calculator, the enzyme CLint values were estimated, resulting in an improved drug exposure prediction (Table 3).

[2] = test system: Caco-2 cell (human colon carcinoma cell line) monolayers; assay: as above; assay type: in vitro ADME; conditions: SimCYP V12 input of the siponimod model
Description: as §1

[3] = test system: CYP3A5; conditions: cited from earlier work
[4] = cited from earlier work
[5] = target: CYP2C19 (Homo sapiens, UniProt P33261); conditions: cited from earlier work; for Ki: read-out: Competitive inhibition constant, Ki (CYP2C19)
Sequence of CYP2C19 (P33261 whole entry): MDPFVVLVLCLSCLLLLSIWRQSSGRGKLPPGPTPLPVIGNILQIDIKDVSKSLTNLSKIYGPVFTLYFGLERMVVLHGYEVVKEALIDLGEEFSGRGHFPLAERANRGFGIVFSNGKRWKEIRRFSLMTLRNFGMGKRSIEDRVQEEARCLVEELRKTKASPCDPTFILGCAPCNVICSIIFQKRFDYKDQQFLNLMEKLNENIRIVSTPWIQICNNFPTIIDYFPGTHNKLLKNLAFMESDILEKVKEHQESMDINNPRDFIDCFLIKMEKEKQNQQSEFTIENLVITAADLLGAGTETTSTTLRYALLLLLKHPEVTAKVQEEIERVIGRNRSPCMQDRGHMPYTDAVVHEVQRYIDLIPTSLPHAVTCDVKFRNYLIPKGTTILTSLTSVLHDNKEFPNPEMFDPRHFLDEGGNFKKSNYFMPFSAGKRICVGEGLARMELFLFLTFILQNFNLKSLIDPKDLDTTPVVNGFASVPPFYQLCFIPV

[6] = test system: CYP; conditions: cited from earlier work
[7] = cited from earlier work; remark: listed apart in the source
[8] = test system: Caco 2; conditions: cited from earlier work
[9] = cited from earlier work; remark: listed apart in the source

In the case of `CC(C)NCC(O)COc1cccc2ccccc12` (stereo not shown) [Propranolol, reference compound], the Papp [1] is reported as 5.33 ×10⁻⁶ cm/s and the Reference compound permeability [2] is reported as “Propranolol 5.33 10^-6cm/s”.

For `OC(Cn1cncn1)(Cn1cncn1)c1ccc(F)cc1F` [fluconazole], the “Fraction unbound in vitro, fumic (CYP3A5)” value ([3]; ref SimCYP version 9) is given as 1, the “Fraction unbound in vitro, fumic (CYP3A5)” value ([3]; ref SimCYP version 16) is given as 1 and the Compound type ([4]; ref SimCYP version 9) is given as “monoprotic base”. The Compound type ([4]; ref SimCYP version 16) was “monoprotic base”, the “Fraction unbound in vitro, fumic (CYP2C19)” value ([5]; ref SimCYP version 9) was 1 and the Ki ([5]; ref SimCYP version 9) was 2000 nM. The “Fraction unbound in vitro, fumic (CYP2C19)” value ([5]; ref SimCYP version 16) was 1, the Ki ([5]; ref SimCYP version 16) was 2000 nM and the “Is the compound a CYP inducer?” value ([6]; ref SimCYP version 9) was “no”. For the same compound, the “Is the compound a MBI?” value ([6]; ref SimCYP version 9) was “no”, the “Is the compound a CYP inducer?” value ([6]; ref SimCYP version 16) was “no” and the “Is the compound a MBI?” value ([6]; ref SimCYP version 16) was “no”. The “In vivo po clearance, CLpo” value ([7]; ref SimCYP version 9) was 1.5 L/h, the “Renal clearance in a 20-30 yr healthy male, CLR” value ([7]; ref SimCYP version 9) was 0.865 L/h and the “Volume of distribution, Vss” value ([7]; ref SimCYP version 9) was 0.57 L/kg. The “In vivo iv clearance, CLiv” value ([7]; ref SimCYP version 16) was 1.01 L/h, the “Renal clearance in a 20-30 yr healthy male, CLR” value ([7]; ref SimCYP version 16) was 0.700 L/h and the “Volume of distribution, Vss” value ([7]; ref SimCYP version 16) was 0.748 L/kg. The “In vivo iv clearance, CLiv” value ([7]; used in the V9 model, ref SimCYP V7) was 1.3 (SimCYP V7) L/h, the “Caco 2 permeability, P Caco 2” value ([8]; ref SimCYP version 9) was 29.8 10^-6cm/s and the “Caco 2 permeability, P Caco 2” value ([8]; ref SimCYP version 16) was 29.8 10^-6cm/s. The “Main plasma binding protein” value ([9]; ref SimCYP version 9) was “HSA” and the “Main plasma binding protein” value ([9]; ref SimCYP version 16) was “HSA”.
